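Five compound concentrations were applied to cells in 96-well plates for 48 hours; endpoints were derived by simple linear interpolation of the resulting dose-response curve. The concentration for 50% growth inhibition is given as GI50.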 Activity calls are given as the source filed them. Cut-off read from the data, not from the text of the source: active = GI50 up to about 1.1 µM and inactive = higher.
Key:
Assay in all cases: growth of human tumour cells (NCI), 48 h
A549 = test system: A549
NCI-H460 = test system: NCI-H460
SW-620 = test system: SW-620
SNB-19 = test system: SNB-19
CAKI-1 = test system: CAKI-1
HCT-116 = test system: HCT-116
HL-60 = test system: HL-60
UACC-257 = test system: UACC-257
IGROV-1 = test system: IGROV-1
SF-539 = test system: SF-539
HT-29 = test system: HT-29
SK-OV-3 = test system: SK-OV-3
MOLT-4 = test system: MOLT-4
OVCAR-3 = test system: OVCAR-3
KM12 = test system: KM12
RPMI-8226 = test system: RPMI-8226

SMILES	GI50 (A549)	GI50 (NCI-H460)	GI50 (SW-620)	GI50 (SNB-19)	GI50 (CAKI-1)	GI50 (HCT-116)	GI50 (HL-60)	GI50 (UACC-257)	GI50 (IGROV-1)	GI50 (SF-539)	GI50 (HT-29)	GI50 (SK-OV-3)	GI50 (MOLT-4)	GI50 (OVCAR-3)	GI50 (KM12)	GI50 (RPMI-8226)
Cc1nc(Nc2ccccc2)sc1C(=O)CC(=O)C(=O)Nc1c(C(C)C)cccc1C(C)C	> 100 µM (inactive)	> 100 µM (inactive)	> 100 µM (inactive)	> 100 µM (inactive)	66.2 µM (inactive)	> 100 µM (inactive)	67.9 µM (inactive)	> 100 µM (inactive)	> 100 µM (inactive)	> 100 µM (inactive)	> 100 µM (inactive)	> 100 µM (inactive)	> 100 µM (inactive)	97.9 µM (inactive)	> 100 µM (inactive)	–
Cc1cc(NS(=O)(=O)c2ccc(Nc3c4ccccc4nc4c(C(=O)NCCN(C)C)ccc(Cl)c34)cc2)no1	3.66 µM (inactive)	1.36 µM (inactive)	1.92 µM (inactive)	2.67 µM (inactive)	–	3.3 µM (inactive)	1.14 µM (inactive)	–	3.56 µM (inactive)	3.14 µM (inactive)	2.86 µM (inactive)	–	0.28 µM (active)	11.7 µM (inactive)	4.91 µM (inactive)	–
Nc1nc(NC2C=C(CO)C(O)C2O)c([N+](=O)[O-])c(=O)[nH]1 (stereo not drawn)	> 100 µM (inactive)	> 100 µM (inactive)	> 100 µM (inactive)	> 100 µM (inactive)	> 100 µM (inactive)	> 100 µM (inactive)	–	> 100 µM (inactive)	> 100 µM (inactive)	> 100 µM (inactive)	> 100 µM (inactive)	> 100 µM (inactive)	> 100 µM (inactive)	> 100 µM (inactive)	> 100 µM (inactive)	–
O=c1c2ccccc2[nH]c2ccc3c(Cl)n[nH]c3c12	15.9 µM (inactive)	31.8 µM (inactive)	36.5 µM (inactive)	32.7 µM (inactive)	23.7 µM (inactive)	31.8 µM (inactive)	40.1 µM (inactive)	37.2 µM (inactive)	35 µM (inactive)	–	37.6 µM (inactive)	> 100 µM (inactive)	9.95 µM (inactive)	57.4 µM (inactive)	32.9 µM (inactive)	39.7 µM (inactive)
O=C(O[C@H]1[C@@H]2C=CO[C@@H](OC3OC(CO)C(O)C(O)C3O)[C@@H]2[C@@]2(CO)O[C@@H]12)c1ccc(O)c(O)c1 (stereo partly drawn)	> 100 µM (inactive)	> 100 µM (inactive)	> 100 µM (inactive)	> 100 µM (inactive)	> 100 µM (inactive)	–	> 100 µM (inactive)	> 100 µM (inactive)	> 100 µM (inactive)	> 100 µM (inactive)	> 100 µM (inactive)	> 100 µM (inactive)	> 100 µM (inactive)	> 100 µM (inactive)	> 100 µM (inactive)	> 100 µM (inactive)
CCN(CC)c1c(C(=O)/C=C/c2ccc(Cl)cc2)c(-c2ccccc2)nn(C)c1=O	1.92 µM (inactive)	1.93 µM (inactive)	2.16 µM (inactive)	1.93 µM (inactive)	3.56 µM (inactive)	1.67 µM (inactive)	1.19 µM (inactive)	1.93 µM (inactive)	2.03 µM (inactive)	–	1.77 µM (inactive)	3.94 µM (inactive)	2.12 µM (inactive)	2.16 µM (inactive)	1.92 µM (inactive)	2.25 µM (inactive)
O=C(O)/C(O)=C1/C=C(c2ccccc2)c2ccccc21	26.2 µM (inactive)	26.4 µM (inactive)	20 µM (inactive)	29.2 µM (inactive)	31.4 µM (inactive)	19.6 µM (inactive)	19.9 µM (inactive)	20.8 µM (inactive)	22.1 µM (inactive)	29.9 µM (inactive)	33.1 µM (inactive)	30.4 µM (inactive)	14.8 µM (inactive)	–	17.8 µM (inactive)	19.4 µM (inactive)
CC1(C)CC(C2CC(C)(C)CC(C)(C)[C@H]2O)[C@@H](O)C(C)(C)C1 (stereo partly drawn)	> 100 µM (inactive)	> 100 µM (inactive)	> 100 µM (inactive)	> 100 µM (inactive)	–	> 100 µM (inactive)	> 100 µM (inactive)	> 100 µM (inactive)	> 100 µM (inactive)	> 100 µM (inactive)	> 100 µM (inactive)	> 100 µM (inactive)	> 100 µM (inactive)	> 100 µM (inactive)	> 100 µM (inactive)	> 100 µM (inactive)
Cc1ccc(C2=C(c3ccccc3)C(O)(c3ccc(C)cc3)C(c3ccccc3)=C2c2ccc(C)cc2)cc1	> 100 µM (inactive)	> 100 µM (inactive)	> 100 µM (inactive)	> 100 µM (inactive)	99.5 µM (inactive)	> 100 µM (inactive)	14.4 µM (inactive)	> 100 µM (inactive)	> 100 µM (inactive)	> 100 µM (inactive)	–	> 100 µM (inactive)	> 100 µM (inactive)	69 µM (inactive)	> 100 µM (inactive)	54.6 µM (inactive)
O/N=C1/C(=C/c2ccc(Br)cc2)CCCC1C(NO)c1ccc(Br)cc1 (stereo not drawn)	15.4 µM (inactive)	> 10 µM (inactive)	20.4 µM (inactive)	15.8 µM (inactive)	–	16.5 µM (inactive)	> 100 µM (inactive)	17.5 µM (inactive)	17.1 µM (inactive)	22.4 µM (inactive)	18.3 µM (inactive)	24.7 µM (inactive)	8.32 µM (inactive)	17.4 µM (inactive)	19.2 µM (inactive)	17.8 µM (inactive)
CC1=C(/C(C)=N/NC(=O)c2ccccc2O)C(C)C(/C(C)=N/NC(=O)c2ccccc2O)=C(C)N1	21.5 µM (inactive)	18 µM (inactive)	33.6 µM (inactive)	30.5 µM (inactive)	28.1 µM (inactive)	18.5 µM (inactive)	5.04 µM (inactive)	23.5 µM (inactive)	10.6 µM (inactive)	20 µM (inactive)	42.3 µM (inactive)	38.1 µM (inactive)	5.09 µM (inactive)	12.2 µM (inactive)	31.4 µM (inactive)	–
O=C1[C@H]2ON(c3ccccc3)C(c3ccccc3F)[C@H]2C(=O)N1c1ccc(Cc2ccc(N3C(=O)[C@@H]4ON(c5ccccc5)C(c5ccccc5F)[C@@H]4C3=O)cc2)cc1 (stereo partly drawn)	> 100 µM (inactive)	> 100 µM (inactive)	> 100 µM (inactive)	–	> 100 µM (inactive)	–	> 100 µM (inactive)	45.1 µM (inactive)	> 100 µM (inactive)	> 100 µM (inactive)	> 100 µM (inactive)	> 100 µM (inactive)	> 100 µM (inactive)	> 100 µM (inactive)	> 100 µM (inactive)	> 100 µM (inactive)
NC(Cc1ccccc1)C(=O)OCN1C(=O)C2C3C=CC(C2C1=O)C1C2C(=O)N(COC(=O)C(N)Cc4ccccc4)C(=O)C2C31 (stereo not drawn)	25.9 µM (inactive)	14.4 µM (inactive)	19.5 µM (inactive)	50.1 µM (inactive)	–	16.3 µM (inactive)	23.7 µM (inactive)	28.8 µM (inactive)	35.6 µM (inactive)	22.2 µM (inactive)	33.2 µM (inactive)	50.2 µM (inactive)	–	33 µM (inactive)	21.3 µM (inactive)	27.2 µM (inactive)
CCOc1ccc(NC(=O)C(=O)CC(=O)C2=C(C)Nc3ccccc3S2)cc1	> 50 µM (inactive)	> 50 µM (inactive)	> 50 µM (inactive)	> 50 µM (inactive)	> 50 µM (inactive)	> 50 µM (inactive)	–	> 50 µM (inactive)	> 50 µM (inactive)	> 50 µM (inactive)	> 50 µM (inactive)	> 50 µM (inactive)	> 50 µM (inactive)	> 50 µM (inactive)	> 50 µM (inactive)	> 50 µM (inactive)
C#CC[N+](C)(CC#C)CC#C	> 100 µM (inactive)	> 100 µM (inactive)	> 100 µM (inactive)	> 100 µM (inactive)	> 100 µM (inactive)	–	> 100 µM (inactive)	> 100 µM (inactive)	> 100 µM (inactive)	–	> 100 µM (inactive)	> 100 µM (inactive)	> 100 µM (inactive)	> 100 µM (inactive)	> 100 µM (inactive)	> 100 µM (inactive)
CC(=O)OC1C=CC2CCN3C(=O)c4cc5c(cc4[C@H]1C23)OCO5 (stereo partly drawn)	> 100 µM (inactive)	> 100 µM (inactive)	> 100 µM (inactive)	> 100 µM (inactive)	–	> 100 µM (inactive)	> 100 µM (inactive)	> 100 µM (inactive)	> 100 µM (inactive)	> 100 µM (inactive)	> 100 µM (inactive)	> 100 µM (inactive)	> 100 µM (inactive)	> 100 µM (inactive)	> 100 µM (inactive)	> 100 µM (inactive)
Cn1c(=O)nc2n(-c3cccc(Cl)c3)c3ccccc3nc-2c1=O	11.4 µM (inactive)	6.4 µM (inactive)	11.2 µM (inactive)	> 10 µM (inactive)	33.7 µM (inactive)	13.8 µM (inactive)	–	10.9 µM (inactive)	24.8 µM (inactive)	16 µM (inactive)	4.53 µM (inactive)	78.9 µM (inactive)	18.5 µM (inactive)	2.45 µM (inactive)	11.2 µM (inactive)	15.5 µM (inactive)
Cc1cc(OC(=O)c2c(C)cc(OC(=O)c3c(C)cc(O)cc3O)cc2O)cc(O)c1C(=O)O [GYROPHORIC ACID]	> 100 µM (inactive)	> 100 µM (inactive)	> 100 µM (inactive)	> 100 µM (inactive)	> 100 µM (inactive)	–	> 100 µM (inactive)	> 100 µM (inactive)	> 100 µM (inactive)	> 100 µM (inactive)	> 100 µM (inactive)	> 100 µM (inactive)	> 100 µM (inactive)	> 100 µM (inactive)	> 100 µM (inactive)	> 100 µM (inactive)

Source: ChEMBL document CHEMBL1201862, “PubChem BioAssay data set” (2004)
